Measurements as given in patent publication US7713994B2 (Wyeth LLC, priority 2005, dated 2010).
Read-outs that look alike come from different tables or passages of the source.

What was measured:
LoVo = assay: Cytotoxicity assay (SRB), LoVo; type: cell-based; details: LoVo cells, SRB, three days, read-out: In Vitro Cellular Activity IC50 LOVO
In short: (§1)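 Overnight-seeded monolayers (4000–12000 cells/well by line) receive compound in 5% FBS medium at 37 °C, 7% CO2. After 3 d, or 6 d for BT474, cellular protein is fixed with cold TCA, stained with SRB and read at 540 nm against untreated wells.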

cyclin D1/cdk 4 enzyme = molecular target: T1, cyclin D1/cdk 4 enzyme (Homo sapiens, UniProt P11802); assay: CDK4 ELISA kinase assay (phospho-Rb ser 795 detection); type: biochemical; details: 200 μM ATP
T1 construct: made in house; host or cells: Sf9 insect cells, recombinant baculovirus
T1 sequence (P11802 whole entry, species assumed): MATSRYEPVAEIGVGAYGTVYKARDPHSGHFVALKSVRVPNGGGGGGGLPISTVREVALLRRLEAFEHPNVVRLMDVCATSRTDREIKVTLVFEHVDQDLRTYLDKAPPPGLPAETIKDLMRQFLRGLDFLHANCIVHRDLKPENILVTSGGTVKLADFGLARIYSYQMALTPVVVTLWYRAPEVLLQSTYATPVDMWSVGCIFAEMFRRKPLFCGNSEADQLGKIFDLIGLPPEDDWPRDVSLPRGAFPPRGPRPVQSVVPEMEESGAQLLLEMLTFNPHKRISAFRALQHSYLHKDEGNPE
T1 sequence (P24385 whole entry partner, species assumed): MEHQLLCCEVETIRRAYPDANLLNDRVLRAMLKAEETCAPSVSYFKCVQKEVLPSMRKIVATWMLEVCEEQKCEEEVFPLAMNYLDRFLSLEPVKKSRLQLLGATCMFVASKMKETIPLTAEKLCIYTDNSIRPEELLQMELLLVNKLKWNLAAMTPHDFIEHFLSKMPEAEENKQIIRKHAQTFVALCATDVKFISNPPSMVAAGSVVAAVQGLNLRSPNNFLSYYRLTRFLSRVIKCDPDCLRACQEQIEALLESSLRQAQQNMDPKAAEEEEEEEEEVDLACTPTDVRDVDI
In short: (§2)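 Wells were coated overnight with GST-Rb C-terminal fragment, then blocked. Compound (10 ug/ml final) and cyclin/CDK enzyme from baculovirus-infected Sf9 cells with 200 μM ATP reacted 1 h at 30° C. Ser795 phosphorylation was detected by ELISA at 450 nm.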

MCF-7 = assay: Cytotoxicity assay (SRB), MCF-7; type: cell-based; details: MCF-7 cells, SRB, three days, read-out: In Vitro Cellular Activity IC50 MCF-7
In short: as §1

cyclin B/CDK1 enzyme = molecular target: T2, cyclin B/CDK1 enzyme (Homo sapiens, UniProt P06493); assay: CDK1 ELISA kinase assay (phospho-Rb ser 795 detection); type: biochemical; details: In Vitro Enzyme Assays, read-out: CDK1 IC50
T2 construct: purchased New England BioLabs; host or cells: Sf9 insect cells, recombinant baculovirus
T2 sequence (P06493 whole entry): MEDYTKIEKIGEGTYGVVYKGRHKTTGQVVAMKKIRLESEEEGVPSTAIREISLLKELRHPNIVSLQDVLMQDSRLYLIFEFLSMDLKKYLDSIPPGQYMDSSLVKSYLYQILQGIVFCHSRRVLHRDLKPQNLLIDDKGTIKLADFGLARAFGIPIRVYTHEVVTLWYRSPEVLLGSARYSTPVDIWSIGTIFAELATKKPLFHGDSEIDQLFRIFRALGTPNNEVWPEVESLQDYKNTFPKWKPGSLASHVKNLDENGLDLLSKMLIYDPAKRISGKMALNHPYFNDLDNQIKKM
T2 sequence (P14635 whole entry partner): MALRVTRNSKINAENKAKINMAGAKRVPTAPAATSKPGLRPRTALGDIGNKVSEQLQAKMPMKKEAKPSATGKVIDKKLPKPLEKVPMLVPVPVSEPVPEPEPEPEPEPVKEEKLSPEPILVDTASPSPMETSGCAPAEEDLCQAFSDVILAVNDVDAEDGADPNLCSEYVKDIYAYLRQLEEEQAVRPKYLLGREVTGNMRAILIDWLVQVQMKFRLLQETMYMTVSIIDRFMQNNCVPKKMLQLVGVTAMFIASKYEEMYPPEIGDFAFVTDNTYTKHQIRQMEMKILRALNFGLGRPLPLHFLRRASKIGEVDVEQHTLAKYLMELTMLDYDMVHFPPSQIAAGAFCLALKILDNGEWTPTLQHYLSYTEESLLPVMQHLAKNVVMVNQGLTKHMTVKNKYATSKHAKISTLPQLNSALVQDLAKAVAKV
In short: as §2

cyclin E/CDK2 enzyme = molecular target: T3, cyclin E/CDK2 enzyme (Homo sapiens, UniProt P24941); assay: CDK2 ELISA kinase assay (phospho-Rb ser 795 detection); type: biochemical; details: In Vitro Enzyme Assays, read-out: CDK2 IC50
T3 construct: made in house; host or cells: Sf9 insect cells, recombinant baculovirus
In short: as §2

BT474 = assay: Cytotoxicity assay (SRB), BT474; type: cell-based; details: BT474 cells, SRB, 6 days, read-out: In Vitro Cellular Activity IC50 BT474
In short: as §1

HCT-116 = assay: Cytotoxicity assay (SRB), HCT-116; type: cell-based; details: HCT116 cells, SRB, three days, read-out: In Vitro Cellular Activity IC50 HCT116
In short: as §1

[1] = In Vitro Enzyme Assays, read-out: CDK4 IC50

SMILES	IC50 (LoVo; Homo sapiens, LoVo, 72 h) [µM]	IC50 (cyclin D1/cdk 4 enzyme; [1]) [µM]	IC50 (MCF-7; Homo sapiens, MCF7, 72 h) [µM]	IC50 (cyclin B/CDK1 enzyme) [µM]	IC50 (cyclin E/CDK2 enzyme) [µM]	IC50 (BT474; Homo sapiens, BT-474, 144 h) [µM]	IC50 (HCT-116; Homo sapiens, HCT-116, 72 h) [µM]	IC50 (cyclin D1/cdk 4 enzyme; CDK4 IC50, In Vitro Enzyme Assays) [µM]	IC50 (LoVo) [µM]	IC50 (MCF-7) [µM]	IC50 (BT474) [µM]	IC50 (HCT-116) [µM]
COc1ccc(CN/C=C2\C(=O)NC(=O)c3ccc(-c4ccsc4)cc32)cc1O [Example 88, (4Z)-4-{[(3-Hydroxy-4-methoxybenzyl)amino]methylene}-6-thien-3-ylisoquinoline-1,3(2H,4H)-dione]	2.4	0.002	9.1	23.3	18.3	6	3.4	–	–	–	–	–
COc1ccc(CN/C=C2\C(=O)NC(=O)c3ccccc32)cc1O [Example 98, (4Z)-4-{[(3-Hydroxy-4-methoxybenzyl)amino]methylene}isoquinoline-1,3(2H,4H)-dione]	19.3	–	24.1	> 50	7.1	16.8	17.9	0.21	–	–	–	–
O=C1NC(=O)c2ccc(-c3ccsc3)cc2/C1=C/Nc1ccc(CN2CCCCC2)cc1 [Example 104, (4Z)-4-({[4-(Piperidin-1-ylmethyl)phenyl]amino}methylene)-6-thien-3-ylisoquinoline-1,3(2H,4H)-dione]	1.3	0.05	3.4	> 50	> 50	3	1	–	–	–	–	–
CN1CCN(c2ccc(N/C=C3\C(=O)NC(=O)c4ccc(-c5ccsc5)cc43)cc2)CC1 [Example 108, (4Z)-4-({[4-(4-Methylpiperazin-1-yl)phenyl]amino}methylene)-6-thien-3-ylisoquinoline-1,3(2H,4H)-dione]	–	0.12	–	> 50	> 50	–	–	–	2.2	2.5	2.6	1.5
COc1ccc(-c2ccc3c(c2)/C(=C/Nc2ccc(N4CCN(C)CC4)cc2)C(=O)NC3=O)cc1 [Example 114, (4Z)-6-(4-methoxyphenyl)-4-({[4-(4-methylpiperazin-1-yl)phenyl]amino}methylene)-isoquinoline-1,3(2H,4H)-dione]	6.5	7.4	6.3	> 50	> 50	5	1.9	–	–	–	–	–
CN1CCN(c2ccc(N/C=C3\C(=O)NC(=O)c4ccc(-c5ccc(C=O)cc5)cc43)cc2)CC1 [Example 115, 4-[(4Z)-4-({[4-(4-Methylpiperazin-1-yl)phenyl]amino}methylene)-1,3-dioxo-1,2,3,4-tetra-hydroisoquinolin-6-yl]benzaldehyde]	6.5	0.13	4.7	8.2	7.7	6.7	1.6	–	–	–	–	–
COc1cccc(-c2ccc3c(c2)/C(=C/Nc2ccc(CN4CCCCC4)cc2)C(=O)NC3=O)c1 [Example 117, (4Z)-6-(3-Methoxyphenyl)-4-({[4-(piperidin-1-ylmethyl)phenyl]amino}methylene)-isoquinoline-1,3(2H,4H)-dione]	2.4	27.8	2.7	> 50	> 50	3	1.4	–	–	–	–	–
CCCOc1ccc(CN/C=C2\C(=O)NC(=O)c3ccc(Br)cc32)cc1O [Example 130, (4Z)-6-Bromo-4-{[(3-hydroxy-4-propoxybenzyl)amino]methylene}isoquinoline-1,3(2H,4H)-dione]	0.94	0.35	4	42.5	34.5	0.65	0.73	–	–	–	–	–
O=C1NC(=O)c2ccc(Br)cc2/C1=C/NCc1ccc(OCCN2CCCC2)c(O)c1 [Example 143, (4Z)-6-Bromo-4-({[3-hydroxy-4-(2-pyrrolidin-1-ylethoxy)benzyl]amino}methylene) isoquinoline-1,3(2H,4H)-dione]	8.8	0.06	4.3	13.6	1.1	5.7	3	–	–	–	–	–
CC(=O)Nc1ccc(CN/C=C2\C(=O)NC(=O)c3ccc(-c4ccsc4)cc32)cc1O [Example 145, N-[4-({[(Z)-(1,3-Dioxo-6-thien-3-yl-2,3-dihydroisoquinolin-4(1H)-′ylidene)methyl]amino}methyl)-2-hydroxyphenyl]acetamide]	16	0.004	> 50	26.3	6.1	> 50	32.5	–	–	–	–	–
O=C1NC(=O)c2ccc(Br)cc2/C1=C/NCc1ccc(OCc2ccccc2)c(O)c1 [Example 147, (4Z)-4-({[4-(Benzyloxy)-3-hydroxybenzyl]amino}methylene)-6-bromoisoquinoline-1,3(2H,4H)-dione]	40	4.6	36	> 50	27.7	> 50	38	–	–	–	–	–
CCCCOc1ccc(CN/C=C2\C(=O)NC(=O)c3ccc(Br)cc32)cc1O [Example 148, (4Z)-6-Bromo-4-{[(4-butoxy-3-hydroxybenzyl)amino]methylene}isoquinoline-1,3(2H,4H)-dione]	22	0.44	25	> 50	31.7	16	18	–	–	–	–	–
CCCCCCOc1ccc(CN/C=C2\C(=O)NC(=O)c3ccc(Br)cc32)cc1O [Example 150, (4Z)-6-Bromo-4-({[4-(hexyloxy)-3-hydroxybenzyl]amino}methylene)isoquinoline-1,3(2H,4H)-dione]	> 50	7.2	46	> 50	> 50	> 50	49	–	–	–	–	–
CC(=O)Nc1ccc(CN/C=C2\C(=O)NC(=O)c3ccc(I)cc32)cc1O [Example 151, N-[2-Hydroxy-4-({[(Z)-(6-iodo-1,3-dioxo-2,3-dihydroisoquinolin-4(1H)-′ylidene)methyl]amino}methyl)phenyl]acetamide]	1.9	0.03	6.6	36.4	1.8	0.9	1.3	–	–	–	–	–
CN1CCN(c2ccc(N/C=C3\C(=O)NC(=O)c4ccc(-c5ccc(C#N)cc5)cc43)cc2)CC1 [Example 153, 4-(4-{[4-(4-Methyl-piperazin-1-yl)-phenylamino]-methylene}-1,3-dioxo-1,2,3,4-tetrahydro-isoquinolin-6-yl)-benzonitrile]	3.7	0.8	3.4	4.3	4.3	3.4	1.1	–	–	–	–	–
CN1CCN(c2ccc(N/C=C3\C(=O)NC(=O)c4ccc(-c5cccc(F)c5)cc43)cc2)CC1 [Example 154, 6-(3-Fluoro-phenyl)-4-{[4-(4-methyl-piperazin-1-yl)-phenylamino]-methylene}-4H-isoquinoline-1,3-dione]	3.2	3.3	2.7	> 50	> 50	3	2.2	–	–	–	–	–
